# Laboratory results taken from patent publication US12138256B2, “Treatment of cardiopulmonary disorders” (Bayer Aktiengesellschaft, priority 2021, dated 2024).
# System: sGC (cGMP)
# Assay: Phase I, healthy male subjects, 14 days inhalation: cGMP concentration (C-4.2)
# Format: in vivo, human
# Settings: for cGMP change from baseline / cGMP concentration, mean +/− SD: 1000 μg
# Description: Healthy white male subjects, aged 18 to 45 years and with a body mass index (BMI) above/equal 18.5 and below/equal 29.9 kg/m2 were treated in a clinical pharmacological phase I study for 14 days with inhaled once daily doses of 1000 μg (nominal dose) or Placebo of dry powder of example 4. The subjects inhaled the drug powder from capsules (see under D-1, e.g. tables 17 and 20) inserted into a handheld inhalation device by one deep inhalative breath into the deep parts of the lung. The intended substantial reduction of increased blood pressure in the central pulmonary blood vessels cannot be evaluated in subjects without pathophysiological impairment of lung function. As surrogate for drug concentration in the lung, plasma concentrations over time have been analysed. […] Drug activity/target engagement in healthy men was controlled in the healthy subjects by analysing blood samples for cGMP. Results are shown in as mean in table C4.2.1 and change to baseline in FIG. 76 and table C4.2.2.
# [1] = −0 D 09 H 00 M (pretreatment day)
# [2] = −0 D 12 H 00 M (pretreatment day)
# [3] = −0 D 16 H 00 M (pretreatment day)
# [4] = −0 D 18 H 00 M (pretreatment day)
# [5] = −0 D 20 H 00 M (pretreatment day)
# [6] = −0 D 22 H 00 M (pretreatment day)
smiles,measurement,setting,value
"O=C(O)c1ccc(CCN(CCc2ccccc2OCc2ccc(-c3ccc(C(F)(F)F)cc3)cc2Cl)[C@H]2CCCc3nc(C(=O)O)ccc32)cc1 [example 4, (5S)-{[2-(4-Carboxyphenyl)ethyl][2-(2-{[3-chloro-4′-(trifluoromethyl)biphenyl-4-yl]methoxy}phenyl)-ethyl]amino}-5,6,7,8-tetrahydroquinoline-2-carboxylic acid]",time until maximum cGMP values were reached,1000 μg once daily,7 days
same,time until steady state of cGMP concentration,1000 μg once daily,≤ 11 days
same,cGMP change from baseline,0 D 02 H 00 M,4840 pM
same,"cGMP concentration, mean +/− SD",0 D 02 H 00 M,9170 pM
same,cGMP change from baseline,0 D 04 H 00 M,7290 pM
same,"cGMP concentration, mean +/− SD",0 D 04 H 00 M,11600 pM
same,cGMP change from baseline,0 D 06 H 00 M,9950 pM
same,"cGMP concentration, mean +/− SD",0 D 06 H 00 M,14300 pM
same,cGMP change from baseline,0 D 08 H 00 M,10600 pM
same,"cGMP concentration, mean +/− SD",0 D 08 H 00 M,14900 pM
same,cGMP change from baseline,0 D 12 H 00 M,7530 pM
same,"cGMP concentration, mean +/− SD",0 D 12 H 00 M,11800 pM
same,cGMP change from baseline,0 D 15 H 00 M,6740 pM
same,"cGMP concentration, mean +/− SD",0 D 15 H 00 M,11100 pM
same,cGMP change from baseline,1 D 00 H 00 M,2980 pM
same,"cGMP concentration, mean +/− SD",1 D 00 H 00 M,7310 pM
same,cGMP change from baseline,2 D 00 H 00 M,4550 pM
same,"cGMP concentration, mean +/− SD",2 D 00 H 00 M,8880 pM
same,cGMP change from baseline,2 D 03 H 00 M,13000 pM
same,"cGMP concentration, mean +/− SD",2 D 03 H 00 M,17300 pM
same,cGMP change from baseline,2 D 08 H 00 M,16400 pM
same,"cGMP concentration, mean +/− SD",2 D 08 H 00 M,20800 pM
same,cGMP change from baseline,2 D 12 H 00 M,12600 pM
same,"cGMP concentration, mean +/− SD",2 D 12 H 00 M,16900 pM
same,cGMP change from baseline,3 D 00 H 00 M,5160 pM
same,"cGMP concentration, mean +/− SD",3 D 00 H 00 M,9490 pM
same,cGMP change from baseline,4 D 00 H 00 M,6360 pM
same,"cGMP concentration, mean +/− SD",4 D 00 H 00 M,10700 pM
same,cGMP change from baseline,5 D 00 H 00 M,5920 pM
same,"cGMP concentration, mean +/− SD",5 D 00 H 00 M,10300 pM
same,cGMP change from baseline,6 D 00 H 00 M,5090 pM
same,"cGMP concentration, mean +/− SD",6 D 00 H 00 M,9420 pM
same,cGMP change from baseline,6 D 03 H 00 M,13400 pM
same,"cGMP concentration, mean +/− SD",6 D 03 H 00 M,17700 pM
same,cGMP change from baseline,6 D 08 H 00 M,20100 pM
same,"cGMP concentration, mean +/− SD",6 D 08 H 00 M,24500 pM
same,cGMP change from baseline,6 D 12 H 00 M,13900 pM
same,"cGMP concentration, mean +/− SD",6 D 12 H 00 M,18200 pM
same,cGMP change from baseline,7 D 00 H 00 M,6180 pM
same,"cGMP concentration, mean +/− SD",7 D 00 H 00 M,10500 pM
same,cGMP change from baseline,8 D 00 H 00 M,6200 pM
same,"cGMP concentration, mean +/− SD",8 D 00 H 00 M,10500 pM
same,cGMP change from baseline,9 D 00 H 00 M,6580 pM
same,"cGMP concentration, mean +/− SD",9 D 00 H 00 M,10900 pM
same,cGMP change from baseline,10 D 00 H 00 M,6450 pM
same,"cGMP concentration, mean +/− SD",10 D 00 H 00 M,10800 pM
same,cGMP change from baseline,10 D 03 H 00 M,12700 pM
same,"cGMP concentration, mean +/− SD",10 D 03 H 00 M,17100 pM
same,cGMP change from baseline,10 D 08 H 00 M,17500 pM
same,"cGMP concentration, mean +/− SD",10 D 08 H 00 M,21900 pM
same,cGMP change from baseline,10 D 12 H 00 M,13000 pM
same,"cGMP concentration, mean +/− SD",10 D 12 H 00 M,17300 pM
same,cGMP change from baseline,11 D 00 H 00 M,6940 pM
same,"cGMP concentration, mean +/− SD",11 D 00 H 00 M,11300 pM
same,cGMP change from baseline,12 D 00 H 00 M,8060 pM
same,"cGMP concentration, mean +/− SD",12 D 00 H 00 M,12400 pM
same,cGMP change from baseline,12 D 22 H 00 M,6950 pM
same,"cGMP concentration, mean +/− SD",12 D 22 H 00 M,11300 pM
same,cGMP change from baseline,13 D 02 H 00 M,9120 pM
same,"cGMP concentration, mean +/− SD",13 D 02 H 00 M,13400 pM
same,cGMP change from baseline,13 D 04 H 00 M,12900 pM
same,"cGMP concentration, mean +/− SD",13 D 04 H 00 M,17300 pM
same,cGMP change from baseline,13 D 06 H 00 M,17000 pM
same,"cGMP concentration, mean +/− SD",13 D 06 H 00 M,21400 pM
same,cGMP change from baseline,13 D 08 H 00 M,17700 pM
same,"cGMP concentration, mean +/− SD",13 D 08 H 00 M,22000 pM
same,cGMP change from baseline,13 D 12 H 00 M,12900 pM
same,"cGMP concentration, mean +/− SD",13 D 12 H 00 M,17200 pM
same,cGMP change from baseline,13 D 15 H 00 M,12100 pM
same,"cGMP concentration, mean +/− SD",13 D 15 H 00 M,16400 pM
same,cGMP change from baseline,14 D 00 H 00 M,5410 pM
same,"cGMP concentration, mean +/− SD",14 D 00 H 00 M,9740 pM
same,cGMP change from baseline,15 D 00 H 00 M,2520 pM
same,"cGMP concentration, mean +/− SD",15 D 00 H 00 M,6850 pM
same,cGMP change from baseline,15 D 12 H 00 M,3040 pM
same,"cGMP concentration, mean +/− SD",15 D 12 H 00 M,7370 pM
same,cGMP change from baseline,16 D 00 H 00 M,2000 pM
same,"cGMP concentration, mean +/− SD",16 D 00 H 00 M,6330 pM
same,cGMP change from baseline,16 D 12 H 00 M,2410 pM
same,"cGMP concentration, mean +/− SD",16 D 12 H 00 M,6740 pM
same,cGMP change from baseline,17 D 00 H 00 M,400 pM
same,"cGMP concentration, mean +/− SD",17 D 00 H 00 M,4730 pM
same,cGMP change from baseline,20 D 00 H 00 M,1220 pM
same,"cGMP concentration, mean +/− SD",20 D 00 H 00 M,5520 pM
same,cGMP change from baseline,FOLLOW-UP,1520 pM
same,"cGMP concentration, mean +/− SD",FOLLOW-UP,5850 pM
same,"cGMP concentration, mean +/− SD",−0 D 02 H 00 M (prior to first inhalation),4330 pM
same,cGMP change from baseline,[1],224 pM
same,"cGMP concentration, mean +/− SD",[1],5490 pM
same,cGMP change from baseline,[2],306 pM
same,"cGMP concentration, mean +/− SD",[2],5570 pM
same,cGMP change from baseline,[3],676 pM
same,"cGMP concentration, mean +/− SD",[3],5940 pM
same,cGMP change from baseline,[4],−252.9 +/− 1345.9
same,"cGMP concentration, mean +/− SD",[4],5010 pM
same,cGMP change from baseline,[5],−952.9 +/− 1984.7
same,"cGMP concentration, mean +/− SD",[5],4310 pM
same,cGMP change from baseline,[6],−100.0 +/− 1403.1
same,"cGMP concentration, mean +/− SD",[6],5160 pM
same,"cGMP concentration, mean +/− SD",−1 D 02 H 00 M (pretreatment day),5260 pM
